Data reported in US5817324A, “Use of arylpyrroles for the control of resistant insect populations” (American Cyanamid Company, priority 1997, dated 1998).

What was measured:
Format in all cases: in vivo
[1] = tested on: Susceptible strain of horn flies (Haematobia irritans); assay: treated filterpaper-tarsal contact 24 hour bioassay, susceptible horn flies (Example 2); settings: Table II
Procedure: (§1) In this bioassay, highly pyrethroid-resistant wild flies and flies of a pyrethroid-susceptible lab strain are used. All flies are held in plastic petri dishes and exposed to sequential rates of test compound residue on filter paper^1. A 1.25 inch hole is cut in the bottom half of the 100 mL petri dish and covered with fiberglass window screen. The bottom is used as the top in this bioassay, in order that the flies may be blood fed through the screened opening with a muslin pad saturated with citrated cattle blood.
(§2) The experiments are conducted in triplicate to determine 24 hour LC50 data for the test compound and cypermethrin on susceptible and pyrethroid-resistant horn flies. The experiments are conducted on site so that freshly captured pyrethroid-resistant horn flies can be used. On the exemplified site, very high levels of pyrethroid resistance had been selected through several years of pyrethroid cattle ear tag use^2. Wild pyrethroid-resistant horn flies are tested within 1 hour of capture to minimize check mortality. The resistance factor (RF) is determined by the following equation: […]
(§3) The LC50 is the concentration in μlg/cm^2 of test com-pound required to kill 50% of the fly population tested. The LC50 values are determined from the mortality data using standard log probit analysis techniques^3, and are within 95% confidence limits^1. The data obtained is shown in Table I. The references listed below are incorporated herein by reference thereto.
(§4) Evaluation Of Test Compounds vs. Permethrin On Susceptible And Resistant Strains Of Horn Flies (Haematobia irritans)
(§5) Using essentially the standard treated filterpaper-tarsal contact 24 hour bioassay described in Example 1, the following test compounds and pyrethroid insecticide are evaluated: […]

[2] = tested on: Resistant strain of horn flies (Haematobia irritans); assay: treated filterpaper-tarsal contact 24 hour bioassay, resistant horn flies, with resistance factor (Example 2); settings: Table II; for Resistant LC50: resistant horn flies
Procedure: as §1
(§6) The experiments are conducted in triplicate to determine 24 hour LC50 data for the test compound and cypermethrin on susceptible and pyrethroid-resistant horn flies. The experiments are conducted on site so that freshly captured pyrethroid-resistant horn flies can be used. On the exemplified site, very high levels of pyrethroid resistance had been selected through several years of pyrethroid cattle ear tag use^2. Wild pyrethroid-resistant horn flies are tested within 1 hour of capture to minimize check mortality. The resistance factor (RF) is determined by the following equation:
(§7) RF=Resistant LC50 .div.Susceptible LC50
as §3, §4, §5

[3] = tested on: pyrethroid-susceptible lab strain horn flies (Haematobia irritans); assay: 24 hour treated filter paper bioassay, pyrethroid-susceptible horn flies (Example 1)
Procedure: (§8) Evaluation Of The Effect Of Test Compounds vs. Cypermethrin On Susceptible And Resistant Strains Of Horn Flies (Haematobia irritans).
as §1, §2, §3

[4] = tested on: pyrethroid-resistant wild horn flies (Haematobia irritans); assay: 24 hour treated filter paper bioassay, pyrethroid-resistant horn flies, with resistance factor (Example 1)
Procedure: as §8, §1, §6, §7, §3

[5] = tested on: pyrethroid-resistant Rowena strain sheep body lice; assay: treated cotton square contact bioassay, pyrethroid-resistant sheep body lice, with resistance factor (Example 3); settings: 16 hours
Procedure: (§9) Evaluation Of Test Compound Activity Against Susceptible And Resistant Sheep Body Lice
(§10) In this evaluation, test compounds are dissolved in acetone and diluted in a gradient series. One mL aliquots of the acetone dilutions are pipetted onto 6 cm cotton squares. The treated squares are dried and put into 9 cm petri dishes. Adult lice from the pyrethroid-susceptible Peak Hill strain and the pyrethroid-resitant Rowena strain are collected by suction from sheep, transferred onto each treated square and confined using a stainless steel ring (50 mm diameter×20 mm). After 16 hours, the lice are scored as dead, moribund or alive. In this bioassay, the test compound killed, rather than knocked-down lice. Each treatment is replicated. Standard log probit analysis techniques are used to determine the LC50 and LC99 values from the mortality data, and are within 95% confidence limits. The LC50 values are then used to determine the resistance factor (RF) as shown below.
as §7
(§11) The LC50 is the concentration in mg/L of test compound required to kill 50% of the lice population tested. The LC99 is the concentration in mg/L of test compound required to kill 99% of the lice population tested.

[6] = tested on: pyrethroid-susceptible Peak Hill strain sheep body lice; assay: treated cotton square contact bioassay, pyrethroid-susceptible sheep body lice (Example 3); settings: 16 hours
Procedure: as §9, §10, §11

[7] = Experiment 1, pyrethroid-resistant horn flies
[8] = Experiment 2, pyrethroid-resistant horn flies
[9] = Experiment 3, pyrethroid-resistant horn flies

SMILES	Susceptible LC50 [1]	RF (resistance factor; Resistant LC50 ÷ Susceptible LC50) [2]	Resistant LC50 [2]	Susceptible LC50 ([3]; Experiment 1)	Susceptible LC50 ([3]; Experiment 2)	Susceptible LC50 ([3]; Experiment 3)	RF (resistance factor; Resistant LC50 ÷ Susceptible LC50) ([4]; Experiment 1)	Resistant LC50 [4, 7]	RF (resistance factor; Resistant LC50 ÷ Susceptible LC50) ([4]; Experiment 2)	Resistant LC50 [4, 8]	RF (resistance factor; Resistant LC50 ÷ Susceptible LC50) ([4]; Experiment 3)	Resistant LC50 [4, 9]	Resistant LC50 ([5]; Rowena strain)	EC99 ([5]; Rowena strain, read-out: Resistant LC99)	RF (resistance factor; Resistant LC50 ÷ Susceptible LC50) ([5]; sheep body lice)	Susceptible LC50 [6]	EC99 ([6]; read-out: Susceptible LC99)
CC1(C)C(C=C(Cl)Cl)C1C(=O)OCc1cccc(Oc2ccccc2)c1 (centres unmarked) [Compound E, Permethrin, reference compound]	0.102 μg/cm^2	80.0	8.16 μg/cm^2	–	–	–	–	–	–	–	–	–	–	–	–	–	–
CCOCn1c(-c2ccc(Cl)cc2)c(C#N)c(Br)c1C(F)(F)F [Compound A, 4-bromo-2-(p-chlorophenyl)-1-(ethoxymethyl)-5-(trifluoromethyl)pyrrole-3-carbonitrile]	1.691 μg/cm^2	0.23	0.391 μg/cm^2	1.2 μg/cm^2	2.15 μg/cm^2	1.25 μg/cm^2	0.30	0.356 μg/cm^2	0.14	0.294 μg/cm^2	0.23	0.287 μg/cm^2	5.85 mg/L	24.5 µg/mL	0.7048	8.30 mg/L	52.8 µg/mL
CC1(C)C(C=C(Cl)Cl)C1C(=O)OC(C#N)c1cccc(Oc2ccccc2)c1 (centres unmarked) [Compound B, Cypermethrin, reference compound]	–	–	–	0.122 μg/cm^2	0.057 μg/cm^2	0.013 μg/cm^2	640	79.02 μg/cm^2	1144	65.20 μg/cm^2	3636	47.27 μg/cm^2	–	–	–	–	–
N#Cc1c(-c2ccc(Cl)cc2)[nH]c(C(F)(F)F)c1Br [Compound C, 4-Bromo-2-(p-chlorophenyl)-5-(trifluoromethyl)pyrrole-3-carbonitrile]	21.237 μg/cm^2	0.088	1.877 μg/cm^2	–	–	–	–	–	–	–	–	–	–	–	–	–	–
CCOCn1c(-c2ccc(Cl)cc2)c(C#N)c(Cl)c1C(F)(F)F [Compound D, 4-Chloro-2-(p-chlorophenyl)-1-(ethoxymethyl)-5-(trifluoromethyl)pyrrole-3-carbonitrile]	8.692 μg/cm^2	0.123	1.066 μg/cm^2	–	–	–	–	–	–	–	–	–	–	–	–	–	–
